Experimental data: patent US20250313528A1, “NOVEL COMPOUND AND PHARMACEUTICAL COMPOSITION FOR PREVENTING OR TREATING PULMONARY FIBROSIS COMPRISING SAME AS ACTIVE INGREDIENT” (GIL MEDICAL CENTER, priority 2022, published 2025)

How the values were obtained:
[1] = system: bleomycin (BLM)-induced pulmonary fibrosis animal models; assay: H&E and Masson-trichrome histological evaluation of lung, BLM model; assay type: in vivo, C57BL/6N mice; details: BLM mice; for degree of fibrosis in the lung tissue: compared to the BLM group; for inflammation in lung tissue (H&E): both doses (Compound 1 200 and 500 μg/kg; Compound 2 100 and 200 μg/kg)
Protocol: (§1) Specifically, 7-week-old C57BL/6N mice were exposed to BLM (3-5 units/kg) via the airway. The compounds were administered orally at doses of 200 μg/kg and 500 μg/kg for Compound 1, and 100 μg/kg and 200 μg/kg for Compound 2, three times a week for three weeks starting the day after BLM exposure. Body weight gain was periodically measured during the experimental period, and lung weight was measured at the end of the experiment.
To observe changes in lung tissue, Hematoxylin and Eosin (H&E) staining and Masson-trichrome staining were performed on lung tissue samples to assess the degree of inflammation and fibrosis.
Specifically, the excised lung tissue was embedded in paraffin and sectioned into 4 μm slices using a microtome. These tissue sections were used for H&E, MT stain, and Immunohistochemistry (IHC). Each experiment was conducted by deparaffinizing and rehydrating the sections using xylene and ethanol. For IHC, the LSAB2 system HRP (DAKO, Carpinteria, CA, USA) kit was used. Antibody retrieval was performed in 0.1 mM citric acid (pH 6), and the experiment was conducted according to the provided instructions. The sections were blocked with blocking buffer at room temperature for 1 hour, then incubated overnight at 4° C. with primary antibodies (fibronectin, collagen 1, α-SMA). After blocking with secondary antibodies at room temperature for 1 hour, the Streptavidin-HRP system was used for 10 minutes, followed by exposure to DAB solution, hematoxylin staining, dehydration, clearing, and mounting with Canada balsam. The stained slides were examined under an optical microscope (BK51, Olympus, Japan). The staining results were quantified using the Image J program.

fibronectin and α-SMA [2] = assay: Western blotting of fibrosis-related proteins in TGF-β1-induced MRC-5 cells; assay type: cell-based, human; details: for expression of fibronectin and α-SMA by concentration: MRC-5 + TGF-β1, Compound 1 at 5, 10, 20 μM, Compound 2 at 2.5, 5, 10 μM, FIG. 3; for expression levels of fibronectin and α-SMA protein: MRC-5, TGF-β1 1 ng/ml, 10 μM, FIG. 4b; for expression levels of fibronectin and α-SMA: MRC-5 induced by TGF-β1, screen of sulforaphane compounds, FIG. 2
Protocol: Since the overexpression of extracellular matrix components such as fibronectin and α-SMA serves as an indicator of fibrotic changes in tissues, MRC-5 cells induced to undergo fibrosis by TGF-β1 were treated with each compound at different concentrations to compare the expression levels of fibronectin and α-SMA.
(§2) Specifically, to extract fibronectin and α-SMA proteins, the cells were washed once with cold PBS and then RIPA buffer (150 mM NaCl, 0.5% Triton X-100, 50 mM Tris-HCl, pH 7.4, 25 mM NaF, 20 mM EGTA), which was added with a protease inhibitor cocktail, was added thereto to lyse the cells. Then, the proteins were quantified using a BCA protein assay kit. All protein samples were subjected to electrophoresis at 10 μg on 8% to 10% PAGE gels and then transferred to 0.2 μm PVDF membranes (EMD Millipore, MA, USA). The membranes to which the protein was transferred were blocked with 5% BSA or 5% skim milk for 1 hour, and then primary antibodies were added thereto and incubated overnight at 4° C. The following day, the membranes were washed three times with PBST, and then HRP-conjugated secondary antibodies were added and reacted at room temperature for 1 hour. The PVDF membranes prepared through such procedures were smeared with ECL (Luminata™ Crescendo, EMD Millipore) and exposed to a fluorescence reader to confirm the level of protein expression.
The specific experimental methods are the same as in Example 2, and sulforaphane was treated at a concentration of 20 μM, Compound 1 at 5 μM, 10 μM, and 20 μM, and Compound 2 at 2.5 μM, 5 μM, and 10 μM, respectively.
(§3) To compare the changes in fibrosis-related protein expression by treating normal MRC-5 and diseased DHLF-IPF cell lines induced with pulmonary fibrosis by TGF-β1 with SFN and the two candidate compounds, Western blotting was performed.
(§4) The specific experimental methods are the same as in Example 2. TGF-β1 was treated at 1 ng/ml to induce fibrosis, and sulforaphane and the two compounds each were treated at a concentration of 10 μM.

TGF-β1 signaling pathway = assay: Western blotting of proteins related to TGF-β1 signaling pathway in DHLF-IPF; assay type: cell-based, human; details: for expression level of Rock protein / expression levels of MRT/SRF in the cytoplasm and nucleus: increased by TGF-β1 treatment
Protocol: as §2
The TGF-β1 signaling pathway can be activated through both Smad-dependent and Smad-independent pathways. The TGF-β/Smad signaling, which is a Smad-dependent pathway, is a crucial pathway that regulates the synthesis of extracellular matrix components. The Smad-independent (TGF-β/non-Smad) pathway is influenced by PI3K/AKT/mTOR and MAPK (JNK, ERK, p38), which are known to be involved in cell proliferation and growth. Based on this mechanism, the protein expression related to the TGF-β1 signaling pathway was comparatively analyzed using the same Western blotting method conducted in Example 2.

[3] = system: bleomycin (BLM)-induced pulmonary fibrosis animal models; assay: Body weight and lung weight in bleomycin-induced pulmonary fibrosis animal model; assay type: in vivo, C57BL/6N mice; details: BLM mice; for lung weight: end of the experiment, vs normal group and BLM group; for body weight gain during the experimental period: three times a week for three weeks
Protocol: The inhibitory effects of the finally selected Compound 1 and Compound 2 on pulmonary fibrosis were examined in bleomycin (BLM)-induced pulmonary fibrosis animal models.
as §1

fibronectin and α-SMA [4] = assay: Western blotting of fibrosis-related proteins in TGF-β1-induced DHLF-IPF cells; assay type: cell-based, human; details: TGF-β1 1 ng/ml, 10 μM, FIG. 4b
Protocol: as §2, §3, §4

DHLF-IPF cells = assay: Wound healing assay, DHLF-IPF; assay type: cell-based, human; details: TGF-β1 treatment, 24 hours, FIG. 6
Protocol: The effects of Compound 1 and Compound 2, selected in Example 3, on cell migration (wound healing) in MRC-5 and DHLF-IPF cells were examined.
Specifically, cells (1×10^5 cells/well) were seeded in a 60 mm dish to achieve approximately 90% confluency and cultured for 24 hours. Subsequently, a straight line was scratched on the bottom with a 200 μL pipette tip, and the detached cells were removed by washing once with Dulbecco's Phosphate-Buffered Saline (DPBS). The wound was photographed under a microscope, and treatments with TGF-β1 alone, TGF-β1+SFN, TGF-β1+GSF-016, and TGF-1+GSF-018 were applied and cultured for approximately 24 hours, after which the wound was re-photographed. The images taken at 24 hours of culture were analyzed using the Image J (Fiji package) software to measure the distance between cells, and the relative migration was expressed as a percentage (%) compared to the control group.

Row | Compound | degree of fibrosis in the lung tissue ([1]; 200 μg/kg) | inflammation in lung tissue (H&E) [1] | expression of fibronectin and α-SMA by concentration (fibronectin and α-SMA [2]) | expression levels of fibronectin and α-SMA protein (fibronectin and α-SMA [2]) | expression levels of fibronectin and α-SMA (fibronectin and α-SMA [2]) | activity of p-AKT (TGF-β1 signaling pathway; TGF-β1) | activity of p-p38 (TGF-β1 signaling pathway; TGF-β1) | phosphorylation of Smad-2 (TGF-β1 signaling pathway; TGF-β1) | phosphorylation of Smad-7 (TGF-β1 signaling pathway; TGF-β1) | expression level of Rock protein (TGF-β1 signaling pathway) | expression levels of MRT/SRF in the cytoplasm and nucleus (TGF-β1 signaling pathway) | body weight gain during the experimental period ([3]; 200 μg/kg orally) | expression levels of fibronectin and α-SMA protein (fibronectin and α-SMA [4]) | cell migration (wound healing) (DHLF-IPF cells) | other results
1 | C=CCOC(=O)C(CSC(=S)NCCCC[S+](C)[O-])NC(C)=O (stereo not shown) [Compound 2] | significantly reduced | significant reduction in inflammation at both concentrations | decreased in a concentration-dependent manner | significantly reducing the expression levels compared to sulforaphane | significantly decreased | significantly reduced the activity | reducing the activity | inhibited | increased | significantly reduced | significantly reduced | steady increase in body weight, approaching levels similar to the normal group | significantly reducing the expression levels compared to sulforaphane | significantly inhibited in a dose-dependent manner | degree of fibrosis in the lung tissue ([1]; 100 μg/kg): significantly reduced; activity of p-ERK (TGF-β1 signaling pathway; TGF-β1): reducing the activity; activity of p-JNK (TGF-β1 signaling pathway; TGF-β1): reducing the activity; phosphorylation of Smad-3 (TGF-β1 signaling pathway; TGF-β1): inhibited; lung weight ([3]; 100 μg/kg orally): similarly lower levels; body weight gain during the experimental period ([3]; 100 μg/kg orally): steady increase in body weight, approaching levels similar to the normal group; lung weight ([3]; 200 μg/kg orally): similarly lower levels
2 | CCOC(=O)C(CSC(=S)NCCCC[S+](C)[O-])NC(C)=O (stereo not shown) [Compound 1] | significantly reduced | significant reduction in inflammation regardless of concentration | decreased in a concentration-dependent manner | significantly reducing the expression levels compared to sulforaphane | significantly decreased | significantly reducing the activity | significantly reducing the activity | inhibited | increased | significantly reduced | significantly reduced | steady increase | significantly reducing the expression levels compared to sulforaphane | significantly inhibited in a dose-dependent manner | degree of fibrosis in the lung tissue ([1]; 500 μg/kg): significantly reduced; body weight gain during the experimental period ([3]; 500 μg/kg orally): initially decreased and then gradually increased
